From patent US10016440B2, “Methods of enhancing antibody-dependent cellular cytotoxicity” (VentiRx Pharmaceuticals, Inc., priority 2010, dated 2018)

How the values were obtained:
Assay type in all cases: cell-based, human
[1] = tested on: breast cancer cell line SKBR3; assay: Herceptin-mediated ADCC of SKBR3 cells by PBMC effector cells (Calcein AM release); settings: PBMCs activated with the ADCC enhancer (FIG. 3)
Description: (§1) Human Peripheral blood mononuclear cells (PBMCs) were isolated by Ficoll™ density gradient centrifugation and resuspended in RPMI containing 2% heat-inactivated FBS. PBMCs at a concentration of 1 to 3 million cells per mL were incubated with 10-500 nM ADCC enhancer in a humidified CO2 incubator for 18-72 hrs. Activated PBMCs were then used as effector cells in NK and ADCC assays. PBMCs activated with the ADCC enhancer were tested for the ability to enhance killing of the NK sensitive target cell line K562 or various tumor cells coated with monoclonal antibodies. Target cells were labeled with the fluorescent dye Calcein AM for 1 hour at 37° C. in a dark humidified CO2 incubator. […] Activated effector cells and labeled target cells were incubated in 96-well tissue culture plates at for 4 hours at 37° C. in a dark humidified CO2 incubator in an assay buffer containing HBSS+Ca/Mg+5% FBS. […] Fluorecence was quantified with a fluorescent microtiter plate reader. The % specific lysis was calculated as (Sample fluorescence-spontaneous fluorescence)*100/(100% fluorescence-spontaneous). 100% fluorescence was determined from wells that contained labeled target cells and detergent such at 0.1% Tween-20 or Triton X-100. Spontaneous fluorescence was determined from wells that contained assay buffer and target cells but not effector cells.

[2] = tested on: breast cancer cell line MDA-MB-231; assay: Herceptin-mediated ADCC of MDA-MB-231 cells by PBMC effector cells (Calcein AM release); settings: PBMCs activated with the ADCC enhancer (FIG. 3)
Description: as §1

[3] = tested on: rituximab-coated HS-Sultan cells; assay: Rituximab-mediated ADCC of HS-Sultan cells with PBMC from donors genotyped for FcgR polymorphisms; settings: for baseline ADCC (percent specific lysis): buffer control, E:T 50:1 (FIG. 4); for rituximab-mediated ADCC activity: unstimulated PBMC
Description: Percent specific lysis is shown for Rituxan-coated HS-Sultan cells incubated with PBMC effector cells at an E:T ratio of 50:1. PBMCs from a patient with the high affinity genotype FcgR2a131 H/H and FcgR3a V/V (solid rectangles) or a patient with the lower affinity genotype FcgR2a131 […] and FcgR3a V/F (open rectangles) were evaluated for ADCC after stimulation with buffer control (baseline) or stimulation with 500 nM ADCC enhancer.
ADCC is mediated through immune effector cells included NK cells that engage the Fc portion of the monoclonal antibody through specific receptors. Patients with single nucleotide polymorphisms in these receptors such as FcRgamma3a position 158 and FcRgamma2a position 131 have a poorer clinical prognosis presumably from poor ADCC due to a lower affinity of the receptor for the monoclonal antibody. […] To determine if this common polymorphism affects the baseline antibody-dependent cellular cytoxicity (ADCC) response and/or response to the ADCC enhancer molecule of the present invention (Compound VTX-2337), PBMCs from donors were genotyped for the two alleles encoding the F and V isoforms, respectively, and tested in vitro. We analyzed rituximab-mediated ADCC using unstimulated PBMC or VTX-2337-stimulated PBMC from 15 donors, including 10 donors with FF or FV phenotype and 5 donors with VV phenotype.
Blood was collected from healthy donors and PBMCs were isolated using a Ficoll gradient. PBMCs were activated by culturing them in the presence of 500 nM VTX-2337 at 37° C. in a humidified 5% CO2 incubator for 48 hours. Activated PBMCs were then incubated with rituximab-coated HS-Sultan cells loaded at a ratio of 100:1 for 4 hours. Lysis was determined by measuring release of the fluorescent dye Calcein AM from the HS-Sultan cells.

Compound | killing of Herceptin coated SKBR3 targets [1] | killing of Herceptin coated MDA-MB-231 targets [2] | rituximab-mediated ADCC ([3]; PBMC stimulated with 500 nM VTX-2337 for 48 hours, low affinity FF/FV group, E:T 100:1 (FIG. 5)) | baseline ADCC (percent specific lysis) ([3]; patient with high affinity genotype FcgR2a131 H/H and FcgR3a V/V) | baseline ADCC (percent specific lysis) ([3]; patient with lower affinity genotype FcgR2a131 A/A and FcgR3a V/F) | rituximab-mediated ADCC activity ([3]; FF/FV donors, E:T 100:1 (FIG. 5)) | rituximab-mediated ADCC activity ([3]; VV donors, E:T 100:1 (FIG. 5))
CCCN(CCC)C(=O)C1=Cc2ccc(-c3ccc(C(=O)N4CCCC4)cc3)cc2N=C(N)C1 [ADCC enhancer, {2-amino-8-[4-(pyrrolidinylcarbonyl)phenyl]-(3H-benzo[f]azepin-4-yl)}-N,N-dipropylcarboxamide] | > 80% | 40-60% | 40.0±4.1% | – | – | – | –
Rituxan: anti-CD20 monoclonal antibody rituximab (Rituxan) | – | – | – | approximately 30% | 10% | 20.5±2.5 % specific lysis | 31.7±2.9 % specific lysis
